The text below walks through data of patent publication US20120027741A1 (priority 2009, published 2012).

Common to all, as to type: in vivo
Test [1] relates to Botrytis cinerea. Description: Botrytis test (beans)/protective. The following applies: 48 h, 2 days after inoculation, read-out: Efficacy in % found. Here is the method: Botrytis Test (Beans)/Protective
(§1) Solvent: • 24,5 parts by weight of acetone • 24,5 parts by weight of dimethylacetamide
(§2) Emulsifier: • 1 part by weight of alkylaryl polyglycol ether
(§3) To produce a suitable preparation of active compound, 1 part by weight of active compound is mixed with the stated amounts of solvent and emulsifier, and the concentrate is diluted with water to the desired concentration.
To test for protective activity, young plants are sprayed with the preparation of active compound. After the spray coating has dried on, 2 small pieces of agar covered with growth of Botrytis cinerea are placed on each leaf. The inoculated plants are placed in a darkened chamber at 20° C. and a relative atmospheric humidity of 100%.
2 days after the inoculation, the size of the lesions on the leaves is evaluated. 0% means an efficacy which corresponds to that of the control, while an efficacy of 100% means that no disease is observed.

Test [2] relates to Phytophthora infestans. Description: whole plant or invertebrate. The conditions noted are these: tomatoes, 3 days after inoculation; for pest or weed control at 0.125 ppm: 0.125 ppm a.i.; for pest or weed control at 0.5 ppm: 0.5 ppm a.i.
The subject of test [3] is Sphaerotheca fuliginea. Put plainly: Sphaerotheca test (cucumbers)/protective. The conditions noted are these: Podosphaera fuliginea, 168 h, 7 days after inoculation, read-out: Efficacy in % found. Here is the method:
Sphaerotheca Test (Cucumbers)/Protective
as §1, §2, §3
To test for protect activity, young plants are sprayed with the preparation of active compound at the stated rate of application. After the spray coating has dried on, the plants are inoculated with to an aqueous spore suspension of Sphaerotheca fuliginea. The plants are then placed in a greenhouse at approximately 23° C. and a relative atmospheric humidity of approximately 70%.
The test is evaluated 7 days after the inoculation. 0% means an efficacy which corresponds to that of the control, while an efficacy of 100% means that no disease is observed.

In test [4] the test system is Pythium ultimum. Put plainly: Pythium test (cotton)/seed treatment. The conditions noted are these: emerged seedlings after 7 days. Here is the method:
Pythium Test (Cotton)/Seed Treatment
The test is performed under greenhouse conditions.
Cotton seeds, treated with the active compound or compound combinations, solved in N-methyl-2-pyrrolidon and diluted with water to the desired dosages, were sown in 6*6 cm pots containing 4 cm of a 1:1 mix of steamed field soil and sand.
Perlite was incubated with mycelium fragments of Pythium ultimum. 1 ml of infected perlite was scattered between the treated cotton seeds. Seeds were then covered by light expanded clay aggregate. Pots were incubated in the greenhouse 7 days at 20° C. and 80% relative humidity.
Assessment consisted of counting of emerged seedlings. 0% means an efficacy which to corresponds to that of the control, while an efficacy of 100% means that all seedlings have emerged.

Setting [5] is: Phytophthora infestans, 72 h, read-out: Efficacy in % found, Table 3.

Where two headings read alike, the source gives them in different places.

With `C#CCCOC(=O)Nc1cccc(CO/N=C(/c2ccccc2)c2nnnn2C)n1` [Ex. A, but-3-yn-1-yl {6-[({[(Z)-(1-methyl-1H-tetrazol-5-yl)(phenyl)methylene]amino}oxy)methyl]pyridin-2-yl}carbamate], the pest or weed control at 25 ppm in test [1] (Table 9, 25 ppm a.i.) turned out to be 15%; in test [3] (Table 7, 25 ppm a.i.) it was 13%. In addition, the pest or weed control at 50 ppm in test [1] (Table 9, 50 ppm a.i.) worked out at 40%; in test [1] (Table 10, 50 ppm a.i.), 0%; in test [3] (Table 7, 50 ppm a.i.), 13%. The pest or weed control at 0.1 ppm in test [2] (Phytophthora infestans, 72 h, read-out: Efficacy in % found, Table 1, 0.1 ppm a.i.) is 7%. Moreover, the pest or weed control at 0.2 ppm in test [2] (Phytophthora infestans, 72 h, read-out: Efficacy in % found, Table 1, 0.2 ppm a.i.) amounted to 23%. The pest or weed control at 0.4 ppm in test [2] (Phytophthora infestans, 72 h, read-out: Efficacy in % found, Table 1, 0.4 ppm a.i.) was found to be 16%; in test [2] (Phytophthora infestans, 72 h, read-out: Efficacy in % found, Table 4, 0.4 ppm a.i.), 55%. For the same compound, the pest or weed control at 0.125 ppm in test [2] (Phytophthora infestans, 72 h, read-out: Efficacy in % found, Table 2) is 20%; in test [2] (setting [5]), 35%; in test [2] (Phytophthora infestans, 72 h, read-out: Efficacy in % found, Table 6), 58%. The pest or weed control at 0.5 ppm in test [2] (setting [5]) was 74%; in test [2] (Phytophthora infestans, 72 h, read-out: Efficacy in % found, Table 5) it was 70%. Besides, the pest or weed control at 100 ppm came to 13% in test [3] (Table 7, 100 ppm a.i.) and 0% in test [3] (Table 8, 100 ppm a.i.). In test [4] (Table 11, 0.1 g a.i./dt), the “Efficacy in % found” value stood at 30%.
For the compound `C#CCOc1ccc(CCNC(=O)C(OCC#C)c2ccc(Cl)cc2)cc1OC` (stereo not shown) [mandipropamid], the “Efficacy in % found” value in test [2] (Table 1, 0.4 ppm a.i.) worked out at 84%; in test [4] (Table 11, 10 g a.i./dt), 0%.
